As usually defined, the IC50 is the concentration at which inhibition is half-maximal.

This assay addresses T1, human LTA4 hydrolase (Homo sapiens, UniProt P09960).
T1 sequence (P09960 1-611): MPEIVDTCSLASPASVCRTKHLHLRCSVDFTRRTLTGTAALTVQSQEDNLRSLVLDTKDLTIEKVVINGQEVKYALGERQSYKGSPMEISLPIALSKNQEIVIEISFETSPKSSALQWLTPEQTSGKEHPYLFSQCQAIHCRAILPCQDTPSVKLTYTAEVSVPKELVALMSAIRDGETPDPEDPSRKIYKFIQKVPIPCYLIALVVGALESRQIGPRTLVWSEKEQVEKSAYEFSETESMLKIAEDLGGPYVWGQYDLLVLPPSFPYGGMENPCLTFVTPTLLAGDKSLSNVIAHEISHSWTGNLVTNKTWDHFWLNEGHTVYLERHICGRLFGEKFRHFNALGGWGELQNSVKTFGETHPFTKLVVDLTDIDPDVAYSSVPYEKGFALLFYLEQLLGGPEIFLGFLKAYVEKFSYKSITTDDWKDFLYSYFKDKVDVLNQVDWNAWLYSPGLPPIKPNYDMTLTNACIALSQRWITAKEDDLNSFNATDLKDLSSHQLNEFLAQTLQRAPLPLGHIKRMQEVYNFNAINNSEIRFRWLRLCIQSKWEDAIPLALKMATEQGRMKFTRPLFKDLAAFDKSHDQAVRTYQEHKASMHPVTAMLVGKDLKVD
The assay can be described thus: LTA4H Enzyme assay (cleavage of Arg-AMC, fluorescence). Conditions: LTA4H Enzyme 1 nM, Arg-AMC substrate 50 μM, room temperature 1 h, fluorescence; read-out: IC50 values of LTA4H Enzyme assay. The format is biochemical. How it is done:
The compounds of the invention are assessed for the ability to interact with human LTA4 hydrolase in an enzymatic assay that measures the ability of the enzyme to cleave the peptide bond of arginyl-aminomethylcoumarin (Arg-AMC). LTA4H Enzyme (1 nM final), Arg-AMC substrate (50 μM final), and compound are combined in a reaction buffer (50 mM Tris-HCl (pH 7.5), 100 mM KCl, 0.5% bovine serum albumin) at room temperature for 1 h. The formation of product is assessed by measuring the fluorescence of aminomethylcoumarin product (excitation wavelength 380 nm/emission wavelength 460 nm).
As for `O=C(O)C[C@H]1CCCN(Cc2ccc([C@H]3COc4ccccc4O3)cc2)C1` [Example 182, [(3R)-1-{4-[(2S)-2,3-dihydro-1,4-benzodioxin-2-yl]benzyl}piperidin-3-yl]acetic acid], the IC50 turned out to be 0.29 nM.

As to `O=C(O)[C@@H]1CC[C@H](NCc2ccc([C@H]3COc4ccccc4O3)cc2)C1` [Example 57, (1R,3S)-3-({4-[(2S)-2,3-dihydro-1,4-benzodioxin-2-yl]benzyl}amino)cyclopentane-carboxylic acid], the IC50 was found to be 13.7 nM.

As to `COCCN(C)Cc1ccc(C2COc3ccccc3O2)cc1` (racemic) [Example 33, N-[4-(2,3-dihydro-1,4-benzodioxin-2-yl)benzyl]-2-methoxy-N-methylethanamine], the IC50 came to 3.19 nM.

On to `O=C(CO)NC1CCN(Cc2ccc([C@H]3COc4cccnc4O3)cc2)CC1` [Example 222, N-(1-{4-[(3S)-2,3-dihydro[1,4]dioxino[2,3-b]pyridin-3-yl]benzyl}piperidin-4-yl)-2-hydroxyacetamide], for which the IC50 came to 0.14 nM.

As to `c1ccc2c(c1)OC[C@H](c1ccc(CN3CCC[C@H]4CCCC[C@@H]43)cc1)O2` [Example 85, (4aR,8aS)-1-{4-[(2S)-2,3-dihydro-1,4-benzodioxin-2-yl]benzyl}decahydroquinoline], the IC50 turned out to be 0.45 nM.

On to `O=C(O)C1(F)CCN(Cc2ccc([C@H]3COc4ccccc4O3)cc2)CC1` [Example 213, 1-{4-[(2S)-2,3-dihydro-1,4-benzodioxin-2-yl]benzyl}-4-fluoropiperidine-4-carboxylic acid], for which the IC50 was 0.81 nM.

For `CN1CCC2(CCN(Cc3ccc([C@H]4COc5cccnc5O4)cc3)CC2)C1=O` [Example 129, 8-{4-[(3S)-2,3-dihydro[1,4]dioxino[2,3-b]pyridin-3-yl]benzyl}-2-methyl-2,8-diazaspiro[4.5]decan-1-one], the IC50 amounted to 0.23 nM.

Take `OCC1CCN(Cc2ccc(C3COc4ccccc4O3)cc2)CC1` (racemic) [Example 27, {1-[4-(2,3-dihydro-1,4-benzodioxin-2-yl)benzyl]piperidin-4-yl}methanol]: the IC50 came to 1.2 nM.

As to `O=C1NC(=O)C2(CCN(Cc3ccc([C@H]4COc5cccnc5O4)cc3)CC2)N1` [Example 165, 8-{4-[(3S)-2,3-dihydro[1,4]dioxin[2,3-b]pyridin-3-yl]benzyl}-1,3,8-triazaspiro[4.5]decane-2,4-dione], the IC50 was 0.13 nM.

Regarding `c1ccc2c(c1)OC[C@H](c1ccc(CN(CC3CC3)C3CCCCC3)cc1)O2` [Example 95, N-(cyclopropylmethyl)-N-{4-[(2S)-2,3-dihydro-1,4-benzodioxin-2-yl]benzyl}cyclohexanamine], the IC50 turned out to be 0.49 nM.

`CN(C)C(=O)C1CCN(Cc2ccc(C3COc4ccccc4O3)cc2)CC1` (racemic) [Example 51, 1-[4-(2,3-dihydro-1,4-benzodioxin-2-yl)benzyl]-N,N-dimethylpiperidine-4-carboxamide]: the IC50 amounted to 0.82 nM.

Take `O=C(NC1CCN(Cc2ccc([C@H]3COc4cccnc4O3)cc2)CC1)C1(O)CC1` [Example 223, N-(1-{4-[(3S)-2,3-dihydro[1,4]dioxino[2,3-b]pyridin-3-yl]benzyl}piperidin-4-yl)-1-hydroxycyclopropanecarboxamide]: the concentration for half-maximal inhibition (IC50) was found to be 0.16 nM.

For the molecule `O=C(O)c1ccc(C2CCN(Cc3ccc([C@H]4COc5cccnc5O4)cc3)CC2)cc1` [Example 235, 4-(1-{4-[(3S)-2,3-dihydro[1,4]dioxino[2,3-b]pyridin-3-yl]benzyl}piperidin-4-yl)benzoic acid], the IC50 stood at 0.08 nM.

As for `c1ccc2c(c1)OC[C@H](c1ccc(CN3CCOCC3)cc1)O2` (single isomer, unassigned) [Example 198], the IC50 was 2.28 nM.

`Fc1ccc2c(c1)OC(c1ccc(CN3CCOCC3)cc1)CO2` (centres unmarked) [Example 202, 4-[4-(7-Fluoro-2,3-dihydro-benzo[1,4]dioxin-2-yl)-benzyl]-morpholine]: the IC50 is 23.4 nM.

With `O=C(O)c1ccc(C2CCN(Cc3ccc([C@H]4COc5ccccc5O4)cc3)CC2)cc1` [Example 233, 4-(1-{4-[(2S)-2,3-dihydro-1,4-benzodioxin-2-yl]benzyl}piperidin-4-yl)benzoic acid], the IC50 stood at 0.22 nM.

Take `COC1CCN(Cc2ccc(C3COc4ccccc4O3)cc2)C1` (racemic) [Example 47, 1-[4-(2,3-dihydro-1,4-benzodioxin-2-yl)benzyl]-3-methoxypyrrolidine]: the IC50 is 1.73 nM.

In the case of `CN(C)CCN(Cc1ccc([C@H]2COc3ccccc3O2)cc1)C1CCCCC1` [Example 104, N-cyclohexyl-N-{4-[(2S)-2,3-dihydro-1,4-benzodioxin-2-yl]benzyl}-N′,N′-dimethylethane-1,2-diamine], the IC50 is 0.18 nM.

`c1cnc2c(c1)OCC(c1ccc(CN3CCCC3)cc1)O2` (racemic) [Example 15, 3-[4-(pyrrolidin-1-ylmethyl)phenyl]-2,3-dihydro[1,4]dioxin[2,3-b]pyridine]: the IC50 came to 0.36 nM.

Take `O=C(O)CCCC1CCN(Cc2ccc([C@H]3COc4ccccc4O3)cc2)CC1` [Example 181, 4-(1-{4-[(2S)-2,3-dihydro-1,4-benzodioxin-2-yl]benzyl}piperidin-4-yl)butanoic acid]: the IC50 is 0.042 nM.

In the case of `CCN(CC)Cc1ccc(C2COc3ccccc3O2)cc1` (racemic) [Example 45, N-[4-(2,3-dihydro-1,4-benzodioxin-2-yl)benzyl]-N-ethylethanamine], the IC50 came to 0.9 nM.

As to `O=C(C1CCN(Cc2ccc([C@H]3COc4cccnc4O3)cc2)CC1)N1CCOCC1` [Example 162, (1-{4-[(3S)-2,3-dihydro[1,4]dioxino[2,3-b]pyridin-3-yl]benzyl}piperidin-4-yl)(morpholin-4-yl)methanone], the IC50 is 0.14 nM.

As for `CN1CC(NCc2ccc([C@H]3COc4ccccc4O3)cc2)CCC1=O` (stereo partly drawn) [Example 108, 5-({4-[(2S)-2,3-dihydro-1,4-benzodioxin-2-yl]benzyl}amino)-1-methylpiperidin-2-one], the IC50 amounted to 0.87 nM.

With `CN(CC(=O)O)Cc1ccc([C@H]2COc3ccccc3O2)cc1` [Example 60, N-{4-[(2S)-2,3-dihydro-1,4-benzodioxin-2-yl]benzyl}-N-methylglycine], the IC50 stood at 31 nM.

`C[C@H]1CC[C@H](NCc2ccc([C@H]3COc4ccccc4O3)cc2)CC1` [Example 100, trans-N-{4-[(2S)-2,3-dihydro-1,4-benzodioxin-2-yl]benzyl}-4-methylcyclohexanamine]: the IC50 is 2.36 nM.

Regarding `O=C1CN(Cc2ccc([C@H]3COc4ccccc4O3)cc2)CN1` [Example 92, 1-{4-[(2S)-2,3-dihydro-1,4-benzodioxin-2-yl]benzyl}imidazolidin-4-one], the IC50 was 36 nM.

In the case of `C[C@H]1CN(Cc2ccc([C@H]3COc4ccccc4O3)cc2)CC[C@H]1C(=O)O` [Example 212], the IC50 was found to be 0.49 nM.

As for `c1ccc2c(c1)OC[C@H](c1ccc(CN3CCCC3)cc1)O2` (single isomer, unassigned) [Example 196], the half-maximal inhibitory concentration (IC50) is 0.39 nM.

On to `CN1CCCN(Cc2ccc([C@H]3COc4cccnc4O3)cc2)CC1` [Example 143, (3S)-3-{4-[(4-methyl-1,4-diazepan-1-yl)methyl]phenyl}-2,3-dihydro[1,4]dioxino[2,3-b]pyridine], for which the IC50 was 0.3 nM.

(Values after patent publication US8946203B2, “Benzodioxane inhibitors of leukotriene production” (Boehringer Ingelheim International GmbH, priority 2012, dated 2015).)
